In brackets after ≈: the same amount, converted by molar mass. Several values for one entry are separate records, joined by “and”; a condition that tells them apart may be missing. Equal values may be shown once. Entries after “also recorded” stand apart in the source; their conditions may differ. Where a name gives a salt, the structure may show the parent alone. Read-outs that look alike come from different tables or passages of the source.
Assays:
[1] = Measurement of solubility in water by liquid chromatography; assay type: physicochemical; conditions: for Solubility in water / solubility at 12 h: saturated solution shaken 12 hrs at 30° C., HPLC, in water; for Solubility in water compared to SIPI-409 and SIPI-409 hydrochloride: in words; for solubility at 12 h: thermodynamic from solid
Description: Solubility of SIPI-409 and of the salt derivatives thereof in water was measured by liquid chromatography.
Main steps: preparing SIPI-409 standards at the concentrations of 5 ? g/mL, 10 ? g/mL, 50 ? g/mL, 100 ? g/mL, 200 ? g/mL and establishing the standard curve of these preparations.
Chromatography Conditions:
Chromatography column: Phenomenex Luna 5u C18(2) 100 A 4.6×200 mm
Detection wave-length: 210 nm
Mobile phase: acetonitrile/phosphate buffer (0.68 g/L monopotassium phosphate, pH was adjusted to 3.0 using triethylamine)=68/32
Column temperature: 30° C.
Load volume: 10 ? L
Residence time: around 6.3 min
Sample treatment: the test samples were prepared into saturated solutions in water (suspensions) and shaken for 12 hrs at 30° C., which were further ultrasonicated for 30 s, followed by filtration and preparation of serial dilutions as appropriate, which were then analyzed by HPLC.

[2] = Temperature stability investigation (60° C. oven, XRPD); assay type: physicochemical; conditions: oven at 60° C., XRPD on day 0, 5, 10, 20 and 30
Description: Phosphate, nicotinate, glycolate, oxalate, orotate, benzenesulfonate and sulfate of SIPI-409 were placed in an oven at 60° C. XRPD measurements were carried out on samples taken out on day 0, 5, 10, 20 and 30.

[3] = Humidity stability investigation (92.5% RH, XRPD); assay type: physicochemical; conditions: 92.5% RH (saturated KNO3), XRPD on day 0, 5, 10, 20 and 30
Description: The phosphate, nicotinate, glycolate, oxalate, orotate, benzenesulfonate and sulfate of SIPI-409 were kept in a 92.5% RH (saturated KNO3) atomosphere. XRPD measurements were carried out on samples taken out on day 0, 5, 10, 20 and 30.

[4] = Light stability investigation (light incubator, XRPD); assay type: physicochemical
Description: The phosphate, nicotinate, glycolate, oxalate, orotate, benzenesulfonate and sulfate of SIPI-409 were placed in a light incubator. XRPD measurements were carried out on samples taken out on day 0, 5, 10, 20 and 30.

[5] = Hygroscopicity investigation (dynamic vapor sorption); assay type: physicochemical; conditions: dynamic vapor sorption analyzer
Excerpt: Hygroscopicity was further investigated by placing the phosphate, nicotinate, glycolate, oxalate, orotate, benzenesulfonate and sulfate of SIPI-409 in a dynamic vapor sorption (DVS) analyzer.

[6] = Pharmacokinetic study, single oral dose in SD rats (LC-MS/MS of plasma); assay type: in vivo
Description: SIPI-409 hydrochloride and SIPI-409 phosphate were administrated peros (PO), and were studied on in vivo pharmacokinetic parameters and bioavailability in SD rats. Concentrations of SIPI-409 hydrochloride and SIPI-409 phosphate in plasma were measured at intervals using Liquid Chromatography-Mass Spectrometry-Mass Spectrometry assay.
The obtained plasma concentration data were processed using the pharmacokinetic processing software WinNonlin 5.2 to calculate the relevant pharmacokinetic parameters according to non-compartmental model.

[7] = Preliminary pharmacokinetic studies (background); assay type: in vivo, SD rats; conditions: for bioavailability: rat, plasma, oral administration, SD rats
Excerpt: This can be explained by the excessively low solubility of the salt.

[8] = Pharmacokinetics after intravenous administration in SD rats; assay type: in vivo; conditions: α-crystalline form, compared with SIPI-409 hydrochloride
[9] = XRPD on day 0, 5, 10, 20 and 30
[10] = PO 10 mg/kg (based on SIPI-409), single dose, 10 mg/kg

Row | Structure (SMILES) | Solubility in water [1] | Solubility in water compared to SIPI-409 and SIPI-409 hydrochloride [1] | Stability 60° C. [2] | Stability 92.5% RH [3] | Stability Light [4, 9] | DVS Max Hygroscopicity [5] | other results
1 | COc1cc2c(cc1OCc1ccccc1)C(Cc1cccc(NS(C)(=O)=O)c1)NCC2 (stereo not shown) [SIPI-409, 1-(3-methanesulfonamidobenzyl)-6-methoxy,7-benzyloxy-1,2,3,4-tetrahydroisoquinoline, reference compound] | 70 µg/mL (≈ 155 µM) | – | – | – | – | – | –
2 | COc1cc2c(cc1OCc1ccccc1)C(Cc1cccc(NS(C)(=O)=O)c1)NCC2 (stereo not shown) [SIPI-409 Hydrobromate, 1-(3-methanesulfonamidobenzyl)-6-methoxy,7-benzyloxy-1,2,3,4-tetrahydroisoquinoline] | 440 µg/mL (≈ 972 µM) | – | – | – | – | – | –
3 | COc1cc2c(cc1OCc1ccccc1)C(Cc1cccc(NS(C)(=O)=O)c1)NCC2 (stereo not shown) [SIPI-409 Ethionate, 1-(3-methanesulfonamidobenzyl)-6-methoxy,7-benzyloxy-1,2,3,4-tetrahydroisoquinoline] | 440 µg/mL (≈ 972 µM) | – | – | – | – | – | –
4 | COc1cc2c(cc1OCc1ccccc1)C(Cc1cccc(NS(C)(=O)=O)c1)NCC2 (stereo not shown) [SIPI-409 Nicotinate, 1-(3-methanesulfonamidobenzyl)-6-methoxy,7-benzyloxy-1,2,3,4-tetrahydroisoquinoline] | 4260 µg/mL (≈ 9410 µM) | significantly increased solubility in water | less stable against heat and degraded since day 5; also recorded: Instable | Hygroscopic | Stable | 4.5% | –
5 | COc1cc2c(cc1OCc1ccccc1)C(Cc1cccc(NS(C)(=O)=O)c1)NCC2 (stereo not shown) [SIPI-409 Sulfate, 1-(3-methanesulfonamidobenzyl)-6-methoxy,7-benzyloxy-1,2,3,4-tetrahydroisoquinoline] | 5760 µg/mL | significantly increased solubility in water | Stable | Hygroscopic | Stable | 5.2% | –
6 | COc1cc2c(cc1OCc1ccccc1)C(Cc1cccc(NS(C)(=O)=O)c1)NCC2 (stereo not shown) [SIPI-409 Glycolate, 1-(3-methanesulfonamidobenzyl)-6-methoxy,7-benzyloxy-1,2,3,4-tetrahydroisoquinoline] | 3210 µg/mL (≈ 7090 µM) | significantly increased solubility in water | Stable | Stable | Stable | 0.8% | –
7 | COc1cc2c(cc1OCc1ccccc1)C(Cc1cccc(NS(C)(=O)=O)c1)NCC2 (stereo not shown) [SIPI-409 Oxalate, 1-(3-methanesulfonamidobenzyl)-6-methoxy,7-benzyloxy-1,2,3,4-tetrahydroisoquinoline] | 3520 µg/mL | significantly increased solubility in water | Stable | Hygroscopic | Stable | 9.5% | –
8 | COc1cc2c(cc1OCc1ccccc1)C(Cc1cccc(NS(C)(=O)=O)c1)NCC2 (racemic) [SIPI-409 Malate, 1-(3-methanesulfonamidobenzyl)-6-methoxy,7-benzyloxy-1,2,3,4-tetrahydroisoquinoline] | – | – | – | – | – | – | solubility at 12 h ([1]; water, 30 °C, water, read-out: Solubility): 650 µM; solubility at 12 h ([1]; water, 30 °C, water, read-out: Solubility in water): 380 µg/mL
9 | COc1cc2c(cc1OCc1ccccc1)C(Cc1cccc(NS(C)(=O)=O)c1)NCC2 (stereo not shown) [SIPI-409 Succinate, 1-(3-methanesulfonamidobenzyl)-6-methoxy,7-benzyloxy-1,2,3,4-tetrahydroisoquinoline] | 160 µg/mL | – | – | – | – | – | –
10 | COc1cc2c(cc1OCc1ccccc1)C(Cc1cccc(NS(C)(=O)=O)c1)NCC2 (stereo not shown) [SIPI-409 Fumarate, 1-(3-methanesulfonamidobenzyl)-6-methoxy,7-benzyloxy-1,2,3,4-tetrahydroisoquinoline] | 120 µg/mL | – | – | – | – | – | –
11 | COc1cc2c(cc1OCc1ccccc1)C(Cc1cccc(NS(C)(=O)=O)c1)NCC2 (stereo not shown) [SIPI-409 Orotate, 1-(3-methanesulfonamidobenzyl)-6-methoxy,7-benzyloxy-1,2,3,4-tetrahydroisoquinoline] | 1930 µg/mL (≈ 4260 µM) | significantly increased solubility in water | Stable | Stable | Stable | 1.1% | –
12 | COc1cc2c(cc1OCc1ccccc1)C(Cc1cccc(NS(C)(=O)=O)c1)NCC2 (stereo not shown) [SIPI-409 Hydrochloride, 1-(3-methanesulfonamidobenzyl)-6-methoxy,7-benzyloxy-1,2,3,4-tetrahydroisoquinoline, reference compound] | 510 µg/mL | – | – | – | – | – | Tmax ([6]; PO 10 mg/kg (based on SIPI-409), single dose): 0.33 h; AUC(0-t) [6, 10]: 482.88 ng·h/mL; AUC(0-∞) [6, 10]: 503.82 ng·h/mL; Cmax [6, 10]: 191.96 ng/mL; F (bioavailability) [6, 10]: 24.63%; t1/2 [6, 10]: 1.8 h; t1/2 of injection ([7]; injection, compared with Sotalol): close to that of Sotalol; bioavailability [7]: 24%
13 | COc1cc2c(cc1OCc1ccccc1)C(Cc1cccc(NS(C)(=O)=O)c1)NCC2 (stereo not shown) [SIPI-409 Phosphate, 1-(3-methanesulfonamidobenzyl)-6-methoxy,7-benzyloxy-1,2,3,4-tetrahydroisoquinoline] | 9690 µg/mL | significantly increased solubility in water | – | – | – | – | AUC(0-t) [6, 10]: 1366.89 ng·h/mL; AUC(0-∞) [6, 10]: 1437.93 ng·h/mL; F (bioavailability) [6, 10]: 79% and 79.33%; half-life ([6]; SD, rat, plasma, po, 10 mg/kg, PO 10 mg/kg (based on SIPI-409), single dose): 2.66 h; Cmax ([6]; SD, rat, plasma, po, 10 mg/kg, PO 10 mg/kg (based on SIPI-409), single dose, read-out: Cmax): 376 ng/mL; MRT inf ([6]; SD, rat, plasma, po, 10 mg/kg, PO 10 mg/kg (based on SIPI-409), single dose, read-out: MRT(0-∞)): 4.23 h; Increase of bioavailability compared to SIPI-409 hydrochloride ([6]; oral administration): 329%; Tmax ([6]; rat, plasma, PO 10 mg/kg (based on SIPI-409), single dose, read-out: Tmax): 0.33 h; Pharmacokinetic parameters after intravenous administration [8]: substantially comparable to SIPI-409 hydrochloride; Stability 60° C. ([2]; listed as SIPI-409 phosphate): satisfactory stabilities; Stability 60° C. ([2]; listed as phosphate): Stable; Stability 92.5% RH ([3]; listed as SIPI-409 phosphate): satisfactory stabilities; Stability 92.5% RH ([3]; listed as phosphate): Stable; Stability Light ([4]; XRPD on day 0, 5, 10, 20 and 30, listed as SIPI-409 phosphate): satisfactory stabilities; Stability Light ([4]; XRPD on day 0, 5, 10, 20 and 30, listed as phosphate): Stable; DVS Max Hygroscopicity ([5]; listed as SIPI-409 phosphate): 0.7%; DVS Max Hygroscopicity ([5]; listed as phosphate): 0.7%
14 | COc1cc2c(cc1OCc1ccccc1)C(Cc1cccc(NS(C)(=O)=O)c1)NCC2 (stereo not shown) [SIPI-409 Tartarate, 1-(3-methanesulfonamidobenzyl)-6-methoxy,7-benzyloxy-1,2,3,4-tetrahydroisoquinoline] | 220 µg/mL (≈ 486 µM) | – | – | – | – | – | –
15 | CC(C)NCC(O)c1ccc(NS(C)(=O)=O)cc1 (stereo not shown) [Sotalol] | – | – | – | – | – | – | bioavailability [7]: 70%
16 | COc1cc2c(cc1OCc1ccccc1)C(Cc1cccc(NS(C)(=O)=O)c1)NCC2 (stereo not shown) [SIPI-409 Benzenesulfonate, 1-(3-methanesulfonamidobenzyl)-6-methoxy,7-benzyloxy-1,2,3,4-tetrahydroisoquinoline] | – | – | Stable | Hygroscopic | Stable | 4.5% | solubility at 12 h ([1]; read-out: Solubility): 3210 µM; solubility at 12 h ([1]; read-out: Solubility in water): 1960 µg/mL

Source: patent US10676442B2, “Salt derivative of tetrahydroisoquinoline and crystalline thereof and preparation method therefore and application thereof” (CHINA STATE INSTITUTE OF PHARMACEUTICAL INDUSTRY, priority 2016, dated 2020)
